Data taken from ChEMBL document CHEMBL3044763, “Inhibitory Activities of Rhodanine Derivatives on Plant Growth” (Biosci Biotechnol Biochem, 1996).

Key:
[1] = Toxicity in Mus musculus ddY (mouse) assessed as mortality at 325 mg/kg, ip after 7 days; assay type: organism-based; parameters: dose 325 mg/kg, route intraperitoneal; conditions: in vivo
[2] = Toxicity in Mus musculus ddY (mouse) assessed as mortality at 325 mg/kg, ip after 3 days; assay type: organism-based; parameters: dose 325 mg/kg, route intraperitoneal; conditions: in vivo
[3] = system: Brassica rapa subsp. oleifera; assay: Growth inhibition of Brassica rapa subsp. oleifera assessed as total chlorophyll level at 5 x 10^-5 M after 7 days; assay type: functional; parameters: scale not given: the % may be the effect or the level left
[4] = system: Brassica rapa subsp. oleifera; assay: Growth inhibition of Brassica rapa subsp. oleifera assessed as root growth at 3 x 10^-4 M after 7 days; assay type: functional
[5] = Toxicity in Mus musculus ddY (mouse) assessed as mortality at 250 mg/kg, ip after 1 day; assay type: organism-based; parameters: dose 250 mg/kg, route intraperitoneal; conditions: in vivo
[6] = Toxicity in Mus musculus ddY (mouse) assessed as mortality at 200 mg/kg, ip after 1 day; assay type: organism-based; parameters: dose 200 mg/kg, route intraperitoneal; conditions: in vivo
[7] = Toxicity in Mus musculus ddY (mouse) assessed as mortality at 275 mg/kg, ip after 4 days; assay type: organism-based; parameters: dose 275 mg/kg, route intraperitoneal; conditions: in vivo
[8] = Toxicity in Mus musculus ddY (mouse) assessed as mortality at 300 mg/kg, ip after 3 days; assay type: organism-based; parameters: dose 300 mg/kg, route intraperitoneal; conditions: in vivo
[9] = system: Brassica rapa subsp. oleifera; assay: Growth inhibition of Brassica rapa subsp. oleifera assessed as chlorophyll b level at 3 x 10^-5 M after 7 days; assay type: functional; parameters: scale not given: the % may be the effect or the level left
[10] = Toxicity in Mus musculus ddY (mouse) assessed as mortality at 325 mg/kg, ip after 6 days; assay type: organism-based; parameters: dose 325 mg/kg, route intraperitoneal; conditions: in vivo
[11] = system: Brassica rapa subsp. oleifera; assay: Growth inhibition of Brassica rapa subsp. oleifera assessed as root growth at 3 x 10^-5 M after 7 days; assay type: functional
[12] = Toxicity in Mus musculus ddY (mouse) assessed as mortality at 325 mg/kg, ip after 1 day; assay type: organism-based; parameters: dose 325 mg/kg, route intraperitoneal; conditions: in vivo
[13] = Toxicity in Mus musculus ddY (mouse) assessed as mortality at 250 mg/kg, ip after 4 days; assay type: organism-based; parameters: dose 250 mg/kg, route intraperitoneal; conditions: in vivo
[14] = Toxicity in Mus musculus ddY (mouse) assessed as mortality at 200 mg/kg, ip after 5 days; assay type: organism-based; parameters: dose 200 mg/kg, route intraperitoneal; conditions: in vivo
[15] = Toxicity in ip dosed Mus musculus ddY (mouse) assessed as mortality after 1 to 7 days; assay type: organism-based; conditions: in vivo
[16] = Toxicity in Mus musculus ddY (mouse) assessed as mortality at 325 mg/kg, ip after 4 days; assay type: organism-based; parameters: dose 325 mg/kg, route intraperitoneal; conditions: in vivo
[17] = Toxicity in Mus musculus ddY (mouse) assessed as mortality at 300 mg/kg, ip after 7 days; assay type: organism-based; parameters: dose 300 mg/kg, route intraperitoneal; conditions: in vivo
[18] = Toxicity in Mus musculus ddY (mouse) assessed as mortality at 275 mg/kg, ip after 2 days; assay type: organism-based; parameters: dose 275 mg/kg, route intraperitoneal; conditions: in vivo
[19] = system: Brassica rapa subsp. oleifera; assay: Growth inhibition of Brassica rapa subsp. oleifera assessed as chlorophyll a level at 3 x 10^-4 M after 7 days; assay type: functional; parameters: scale not given: the % may be the effect or the level left
[20] = system: Brassica rapa subsp. oleifera; assay: Growth inhibition of Brassica rapa subsp. oleifera assessed as total chlorophyll level at 1 x 10^-4 M after 7 days; assay type: functional; parameters: scale not given: the % may be the effect or the level left
[21] = Toxicity in Mus musculus ddY (mouse) assessed as mortality at 250 mg/kg, ip after 2 days; assay type: organism-based; parameters: dose 250 mg/kg, route intraperitoneal; conditions: in vivo
[22] = Toxicity in Mus musculus ddY (mouse) assessed as mortality at 225 mg/kg, ip after 4 days; assay type: organism-based; parameters: dose 225 mg/kg, route intraperitoneal; conditions: in vivo
[23] = system: Brassica rapa subsp. oleifera; assay: Growth inhibition of Brassica rapa subsp. oleifera assessed as chlorophyll a level at 3 x 10^-5 M after 7 days; assay type: functional; parameters: scale not given: the % may be the effect or the level left
[24] = Toxicity in Mus musculus ddY (mouse) assessed as mortality at 300 mg/kg, ip after 4 days; assay type: organism-based; parameters: dose 300 mg/kg, route intraperitoneal; conditions: in vivo
[25] = system: Brassica rapa subsp. oleifera; assay: Growth inhibition of Brassica rapa subsp. oleifera assessed as root growth at 5 x 10^-5 M after 7 days; assay type: functional
[26] = Toxicity in Mus musculus ddY (mouse) assessed as mortality at 225 mg/kg, ip after 3 days; assay type: organism-based; parameters: dose 225 mg/kg, route intraperitoneal; conditions: in vivo
[27] = Toxicity in Mus musculus ddY (mouse) assessed as mortality at 200 mg/kg, ip after 2 days; assay type: organism-based; parameters: dose 200 mg/kg, route intraperitoneal; conditions: in vivo
[28] = Toxicity in Mus musculus ddY (mouse) assessed as mortality at 300 mg/kg, ip after 2 days; assay type: organism-based; parameters: dose 300 mg/kg, route intraperitoneal; conditions: in vivo
[29] = Toxicity in Mus musculus ddY (mouse) assessed as mortality at 275 mg/kg, ip after 5 days; assay type: organism-based; parameters: dose 275 mg/kg, route intraperitoneal; conditions: in vivo
[30] = system: Brassica rapa subsp. oleifera; assay: Growth inhibition of Brassica rapa subsp. oleifera assessed as total chlorophyll level at 3 x 10^-4 M after 7 days; assay type: functional; parameters: scale not given: the % may be the effect or the level left
[31] = Toxicity in Mus musculus ddY (mouse) assessed as mortality at 275 mg/kg, ip after 1 day; assay type: organism-based; parameters: dose 275 mg/kg, route intraperitoneal; conditions: in vivo
[32] = Toxicity in Mus musculus ddY (mouse) assessed as mortality at 275 mg/kg, ip after 7 days; assay type: organism-based; parameters: dose 275 mg/kg, route intraperitoneal; conditions: in vivo
[33] = system: Brassica rapa subsp. oleifera; assay: Growth inhibition of Brassica rapa subsp. oleifera assessed as root growth at 1 x 10^-4 M after 7 days; assay type: functional
[34] = Toxicity in Mus musculus ddY (mouse) assessed as mortality at 200 mg/kg, ip after 7 days; assay type: organism-based; parameters: dose 200 mg/kg, route intraperitoneal; conditions: in vivo
[35] = Toxicity in Mus musculus ddY (mouse) assessed as mortality at 300 mg/kg, ip after 5 days; assay type: organism-based; parameters: dose 300 mg/kg, route intraperitoneal; conditions: in vivo
[36] = Toxicity in Mus musculus ddY (mouse) assessed as mortality at 300 mg/kg, ip after 6 days; assay type: organism-based; parameters: dose 300 mg/kg, route intraperitoneal; conditions: in vivo
[37] = Toxicity in Mus musculus ddY (mouse) assessed as mortality at 200 mg/kg, ip after 4 days; assay type: organism-based; parameters: dose 200 mg/kg, route intraperitoneal; conditions: in vivo
[38] = Toxicity in Mus musculus ddY (mouse) assessed as mortality at 225 mg/kg, ip after 1 day; assay type: organism-based; parameters: dose 225 mg/kg, route intraperitoneal; conditions: in vivo
[39] = Toxicity in Mus musculus ddY (mouse) assessed as mortality at 250 mg/kg, ip after 3 days; assay type: organism-based; parameters: dose 250 mg/kg, route intraperitoneal; conditions: in vivo
[40] = Toxicity in Mus musculus ddY (mouse) assessed as mortality at 250 mg/kg, ip after 6 days; assay type: organism-based; parameters: dose 250 mg/kg, route intraperitoneal; conditions: in vivo
[41] = Toxicity in Mus musculus ddY (mouse) assessed as mortality at 225 mg/kg, ip after 2 days; assay type: organism-based; parameters: dose 225 mg/kg, route intraperitoneal; conditions: in vivo
[42] = Toxicity in Mus musculus ddY (mouse) assessed as mortality at 225 mg/kg, ip after 7 days; assay type: organism-based; parameters: dose 225 mg/kg, route intraperitoneal; conditions: in vivo
[43] = Toxicity in Mus musculus ddY (mouse) assessed as mortality at 325 mg/kg, ip after 5 days; assay type: organism-based; parameters: dose 325 mg/kg, route intraperitoneal; conditions: in vivo
[44] = Toxicity in Mus musculus ddY (mouse) assessed as mortality at 200 mg/kg, ip after 6 days; assay type: organism-based; parameters: dose 200 mg/kg, route intraperitoneal; conditions: in vivo
[45] = Toxicity in Mus musculus ddY (mouse) assessed as mortality at 275 mg/kg, ip after 3 days; assay type: organism-based; parameters: dose 275 mg/kg, route intraperitoneal; conditions: in vivo
[46] = Toxicity in Mus musculus ddY (mouse) assessed as mortality at 225 mg/kg, ip after 5 days; assay type: organism-based; parameters: dose 225 mg/kg, route intraperitoneal; conditions: in vivo
[47] = Toxicity in Mus musculus ddY (mouse) assessed as mortality at 225 mg/kg, ip after 6 days; assay type: organism-based; parameters: dose 225 mg/kg, route intraperitoneal; conditions: in vivo
[48] = Toxicity in Mus musculus ddY (mouse) assessed as mortality at 300 mg/kg, ip after 1 day; assay type: organism-based; parameters: dose 300 mg/kg, route intraperitoneal; conditions: in vivo
[49] = Toxicity in Mus musculus ddY (mouse) assessed as mortality at 275 mg/kg, ip after 6 days; assay type: organism-based; parameters: dose 275 mg/kg, route intraperitoneal; conditions: in vivo
[50] = Toxicity in Mus musculus ddY (mouse) assessed as mortality at 250 mg/kg, ip after 5 days; assay type: organism-based; parameters: dose 250 mg/kg, route intraperitoneal; conditions: in vivo
[51] = Toxicity in Mus musculus ddY (mouse) assessed as mortality at 200 mg/kg, ip after 3 days; assay type: organism-based; parameters: dose 200 mg/kg, route intraperitoneal; conditions: in vivo
[52] = system: Brassica rapa subsp. oleifera; assay: Growth inhibition of Brassica rapa subsp. oleifera assessed as chlorophyll b level at 5 x 10^-5 M after 7 days; assay type: functional; parameters: scale not given: the % may be the effect or the level left
[53] = system: Brassica rapa subsp. oleifera; assay: Growth inhibition of Brassica rapa subsp. oleifera assessed as chlorophyll b level at 3 x 10^-4 M after 7 days; assay type: functional; parameters: scale not given: the % may be the effect or the level left
[54] = Toxicity in Mus musculus ddY (mouse) assessed as mortality at 325 mg/kg, ip after 2 days; assay type: organism-based; parameters: dose 325 mg/kg, route intraperitoneal; conditions: in vivo
[55] = system: Brassica rapa subsp. oleifera; assay: Growth inhibition of Brassica rapa subsp. oleifera assessed as total chlorophyll level at 3 x 10^-5 M after 7 days; assay type: functional; parameters: scale not given: the % may be the effect or the level left
[56] = Toxicity in Mus musculus ddY (mouse) assessed as mortality at 250 mg/kg, ip after 7 days; assay type: organism-based; parameters: dose 250 mg/kg, route intraperitoneal; conditions: in vivo
[57] = system: Brassica rapa subsp. oleifera; assay: Growth inhibition of Brassica rapa subsp. oleifera assessed as chlorophyll a level at 5 x 10^-5 M after 7 days; assay type: functional; parameters: scale not given: the % may be the effect or the level left
[58] = system: Brassica rapa subsp. oleifera; assay: Growth inhibition of Brassica rapa subsp. oleifera assessed as chlorophyll a level at 1 x 10^-4 M after 7 days; assay type: functional; parameters: scale not given: the % may be the effect or the level left
[59] = system: Brassica rapa subsp. oleifera; assay: Growth inhibition of Brassica rapa subsp. oleifera assessed as chlorophyll b level at 1 x 10^-4 M after 7 days; assay type: functional; parameters: scale not given: the % may be the effect or the level left

CN1C(=O)CSC1=S [3-METHYL-RHODANINE]
mortality at 168 h [1]: 100%
mortality at 72 h [2]: 100%
Activity [3]: 18.62%
Activity [4]: 37.5 mm
mortality at 24 h [5]: 20%
mortality at 24 h [6]: 0%
mortality at 96 h [7]: 80%
mortality at 72 h [8]: 80%
Activity [9]: 4.67%
mortality at 144 h [10]: 100%
Root length [11]: 56.2 mm
mortality at 24 h [12]: 60%
mortality at 96 h [13]: 40%
mortality at 120 h [14]: 0%
LD50 [15]: 255 mg/kg
mortality at 96 h [16]: 100%
mortality at 168 h [17]: 80%
mortality at 48 h [18]: 80%
Activity [19]: 10.77%
Activity [20]: 20.44%
mortality at 48 h [21]: 20%
mortality at 96 h [22]: 20%
Activity [23]: 15.09%
mortality at 96 h [24]: 80%
Root length [25]: 53.9 mm
mortality at 72 h [26]: 20%
mortality at 48 h [27]: 0%
mortality at 48 h [28]: 80%
mortality at 120 h [29]: 80%
Activity [30]: 14.29%
mortality at 24 h [31]: 20%
mortality at 168 h [32]: 80%
Activity [33]: 52.7 mm
mortality at 168 h [34]: 0%
mortality at 120 h [35]: 80%
mortality at 144 h [36]: 80%
mortality at 96 h [37]: 0%
mortality at 24 h [38]: 20%
mortality at 72 h [39]: 40%
mortality at 144 h [40]: 40%
mortality at 48 h [41]: 20%
mortality at 168 h [42]: 20%
mortality at 120 h [43]: 100%
mortality at 144 h [44]: 0%
mortality at 72 h [45]: 80%
mortality at 120 h [46]: 20%
mortality at 144 h [47]: 20%
mortality at 24 h [48]: 40%
mortality at 144 h [49]: 80%
mortality at 120 h [50]: 40%
mortality at 72 h [51]: 0%
Activity [52]: 4.44%
Activity [53]: 3.53%
mortality at 48 h [54]: 60%
Activity [55]: 19.75%
mortality at 168 h [56]: 40%
Activity [57]: 14.2%
Activity [58]: 15.61%
Activity [59]: 4.85%
